Source: US9701670B2, “Pyrazolyl-ureas as kinase inhibitors” (RESPIVERT LIMITED, priority 2013, dated 2017)
pIC50: −log10 of the molar value.

Assays:
[1] = target: T1, p38 MAPKα isoform (MAPK14) (Homo sapiens (Human), UniProt Q16539); test: p38 MAPKα enzyme inhibition (FRET, Z-LYTE), Method 2; type: biochemical; conditions: Method 2, different laboratory (Table 4a2)
Description: (§1) The enzyme inhibitory activities of compounds disclosed herein are determined by FRET using synthetic peptides labelled with both donor and acceptor fluorophores (Z-LYTE, Invitrogen Ltd., Paisley, UK).
The inhibitory activities of test compounds against the p38 MAPKα isoform (MAPK14: Invitrogen), are evaluated indirectly by determining the level of activation/phosphorylation of the down-stream molecule, MAPKAP-K2. The p38 MAPKα protein (80 ng/mL, 2.5 μL) is mixed with the test compound (2.5 μL of either 4 μg/mL, 0.4 μg/mL, 0.04 μg/mL or 0.004 μg/mL) for 2 hr at RT. […] The mixture is incubated for 1 hr at RT. Development reagent (protease, 5 μL) is added for 1 hr prior to detection in a fluorescence microplate reader (Varioskan® Flash, ThermoFisher Scientific).
(§2) In all cases, the site-specific protease cleaves non-phosphorylated peptide only and eliminates the FRET signal. Phosphorylation levels of each reaction are calculated using the ratio of coumarin emission (donor) over fluorescein emission (acceptor), for which high ratios indicate high phosphorylation and low ratios indicate low phosphorylation levels.

[2] = system: Differentiated U937 cells; test: (l) Cell viability: MTT assay; type: cell-based, human; conditions: 1 μg/mL
Summary of the method: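 Differentiated U937 cells were exposed to compound at 1 or 10 μg/mL either 4 h in 5% FCS RPMI1640 or 24 h in 10% FCS RPMI1640, then given MTT for 1 h, DMSO-solubilised and read at 550 nm. Percent viability loss versus 0.5% DMSO vehicle; apparent gains appear negative.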

mice = test: Mouse cigarette smoke model (macrophage and neutrophil accumulation in BALF); type: in vivo; conditions: tobacco smoke, mice; for Cell numbers in BAL Macrophage / Cell numbers in BAL Neutrophil: mean ± SEM, N = 6
Excerpt: The result of treatment with compound Example (8) on macrophage and neutrophil accumulation in BALF in the mouse cigarette smoke model was investigated (Table 5).

[3] = target: T1, p38 MAPKα isoform (MAPK14); test: p38 MAPKα enzyme inhibition (FRET, Z-LYTE), Method 1; type: biochemical; conditions: Method 1 (Table 4a1)
Balb/c mice = test: (A) LPS-induced neutrophil accumulation in mice; type: in vivo, mouse; conditions: mice; for Neutrophil numbers in BAL: N = 8
Description: […] At T=0, mice are placed into an exposure chamber and exposed to LPS (7.0 mL, 0.5 mg/mL solution in PBS) for 30 min). After a further 8 hr the animals are anesthetized, their tracheas cannulated and BALF extracted by infusing and then withdrawing from their lungs 1.0 mL of PBS via the tracheal catheter. Total and differential white cell counts in the BALF samples are measured using a Neubaur haemocytometer. Cytospin smears of the BALF samples are prepared by centrifugation at 200 rpm for 5 min at RT and stained using a DiffQuik stain system (Dade Behring). Cells are counted using oil immersion microscopy. Data for neutrophil numbers in BAL are shown as mean±S.E.M. (standard error of the mean). The percentage inhibition of neutrophil accumulation is calculated for each treatment relative to vehicle treatment.

GSK 3α = GSK 3α (Homo sapiens (Human), UniProt P49840); test: GSK 3α enzyme inhibition (FRET, Z-LYTE), Method 2; type: biochemical; conditions: Method 2, different laboratory (Table 4a2); read-out: IC50 Values for Enzyme Inhibition GSK3α
Sequence of GSK 3α (P49840 whole entry): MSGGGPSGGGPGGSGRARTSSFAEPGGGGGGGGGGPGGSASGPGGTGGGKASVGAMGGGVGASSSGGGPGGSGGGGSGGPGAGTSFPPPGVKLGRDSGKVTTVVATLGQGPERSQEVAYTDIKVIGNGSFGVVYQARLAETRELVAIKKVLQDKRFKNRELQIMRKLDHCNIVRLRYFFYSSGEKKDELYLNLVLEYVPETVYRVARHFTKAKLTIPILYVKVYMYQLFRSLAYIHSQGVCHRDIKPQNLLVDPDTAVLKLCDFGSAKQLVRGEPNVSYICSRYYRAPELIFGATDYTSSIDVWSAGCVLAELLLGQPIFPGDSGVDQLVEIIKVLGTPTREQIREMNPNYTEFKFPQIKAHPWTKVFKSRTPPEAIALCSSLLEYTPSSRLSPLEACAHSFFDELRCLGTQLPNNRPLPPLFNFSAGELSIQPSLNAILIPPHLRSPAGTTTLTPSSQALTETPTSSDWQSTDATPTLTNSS
Description: as §1
The inhibitory activities of compounds of the invention against the GSK 3α enzyme isoform (Invitrogen), are evaluated by determining the level of activation/phosphorylation of the target peptide. The GSK3-α protein (500 ng/mL, 2.5 μL) is mixed with the test compound (2.5 μL at either 4 μg/mL, 0.4 μg/mL, 0.04 μg/mL, or 0.004 μg/mL) for 2 hr at RT. The FRET peptide (8 μM, 2.5 μL), which is a phosphorylation target for GSK3α, and ATP (40 μM, 2.5 μL) are then added to the enzyme/compound mixture and the resulting mixture incubated for 1 hr. Development reagent (protease, 5 μL) is added for 1 hr prior to detection in a fluorescence microplate reader (Varioskan® Flash, ThermoFisher Scientific).
as §2

[4] = Cryopreserved hepatocyte stability; type: in vitro ADME; conditions: scaled from intrinsic clearance, mean of two experiments
Description: (§3) Formulae CIint(tissue clearance) mL/min/kg=[0.693/t½(min)]×[1/microsomal protein concentration mg/mL]×[mg microsomes/g liver]×[g liver/kg body weight] […] The incubations were performed at 37° C. with 100 μL samples taken from the incubation, at 0, 10, 20, 45 and 90 minutes, and reactions terminated by addition of 100 μL of acetonitrile containing carbamazepine as analytical internal standard. […] Half-life values were calculated from the relationship T1/2(min)=−0.693/λ • where λ was the slope of the Ln concentration vs time curve. • Standard compounds testosterone, midazolam and 4-methylumbelliferone are included in the assay design.
CIint(Tissue Clearance) mL/min/kg=[0.693/t½(min)]×[1/hepatocyte concentration (million cells/mL)]×[million cells/g liver]×[g liver/kg body weight] CIint(Hepatic clearance) mL/min/kg=hepatic blood flow×CIint/(hepatic blood flow+CIint) Hepatic extraction ratio (Eh)=CIint(Hepatic clearance) mL/min/kg/hepatic blood flow (mL/min/kg)

[5] = Hepatic microsomal stability; type: in vitro ADME; conditions: scaled from intrinsic clearance, mean of two experiments
Description: (§4) • Microsomal stability assays were performed with incubations of test compounds at 0.1 μM (n=2, final DMSO concentration 0.25%), and carried out using pooled human, dog and rat hepatic microsomes from Xenotech (Lots 1210153, 0810143 and 1110042, respectively) at 0.25 mg protein/mL in the presence of co-factor, NADPH. The incubations were performed at 37° C. with 100 μL aliquots taken from the incubation, at 0, 2, 5, 10 and 20 minutes and reactions terminated by addition of 100 μL of acetonitrile containing carbamazepine as analytical internal standard. […] Half-life values were calculated from the relationship T1/2(min)=−0.693/λ • where λ was the slope of the Ln concentration vs time curve. • The in vitro intrinsic clearance, CIint (mL/min/kg), was calculated and scaled to hepatic extraction ratios using the following scaling parameters and formulae.
as §3

[6] = system: β-catenin in d-U937 cells; test: (m) Accumulation of β catenin in d-U937 cells; type: cell-based, human
Summary of the method: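 PMA-differentiated U937 macrophage-type cells (100 ng/mL, 48–72 hr) were exposed to test compound or vehicle for 18 hr, then fixed. β-catenin was measured by cell ELISA (HRP/TMB, OD450-655) and normalised to crystal violet OD595. Signals below 15% of the standard control were designated "-ve".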

[7] = Hepatic microsomal stability; type: in vitro ADME, human
Description: as §4, §3

T1 sequence (Q16539 whole entry, canonical isoform): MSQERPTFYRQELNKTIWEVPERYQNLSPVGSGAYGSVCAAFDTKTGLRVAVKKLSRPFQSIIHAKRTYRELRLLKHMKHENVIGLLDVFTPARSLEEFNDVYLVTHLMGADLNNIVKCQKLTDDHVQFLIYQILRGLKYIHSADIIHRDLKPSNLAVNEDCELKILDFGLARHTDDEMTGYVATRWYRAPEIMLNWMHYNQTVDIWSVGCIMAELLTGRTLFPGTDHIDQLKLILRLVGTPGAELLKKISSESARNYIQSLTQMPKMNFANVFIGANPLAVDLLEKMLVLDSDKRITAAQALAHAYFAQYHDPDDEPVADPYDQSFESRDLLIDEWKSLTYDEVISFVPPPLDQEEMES

SMILES: COc1cc(Nc2nccc(Oc3ccc(NC(=O)Nc4cc(C(C)C)nn4-c4ccc(C)cc4)c4ccccc34)n2)cc(C(=O)NCCN2CCOCC2)c1 [Example 8, 3-((4-((4-(3-(3-Isopropyl-1-(p-tolyl)-1H-pyrazol-5-yl)ureido)naphthalen-1-yl)oxy)pyrimidin-2-yl)amino)-5-methoxy-N-(2-morpholinoethyl)benzamide]
- pIC50 [1]: 7.36
- Cell viability at time point in d-U937 cells 4 h ([2]; 4 h): −ve (−ve and +ve indicate that the value is below and above respectively, the no significant effect threshold, defined as 30% inhibition at 1 μg/mL at the time point indicated.)
- Cell viability at time point in d-U937 cells 24 h ([2]; 24 h): −ve (−ve and +ve indicate that the value is below and above respectively, the no significant effect threshold, defined as 30% inhibition at 1 μg/mL at the time point indicated.)
- % inhibition Macrophage in BAL (mice; 1.6 μg/mL): 29%
- % inhibition Neutrophil in BAL (mice; 1.6 μg/mL): 28%
- Cell numbers in BAL Macrophage (mice; 1.6 μg/mL): 14.0 ± 0.50 ×10^4/mL
- Cell numbers in BAL Neutrophil (mice; 1.6 μg/mL): 13.6 ± 0.51 ×10^4/mL
- % inhibition Macrophage in BAL (mice; 8 μg/mL): 50%
- % inhibition Neutrophil in BAL (mice; 8 μg/mL): 49%
- Cell numbers in BAL Macrophage (mice; 8 μg/mL): 10.9 ± 0.42 ×10^4/mL
- Cell numbers in BAL Neutrophil (mice; 8 μg/mL): 10.2 ± 0.33 ×10^4/mL
- % inhibition Macrophage in BAL (mice; 40 μg/mL): 67%
- % inhibition Neutrophil in BAL (mice; 40 μg/mL): 61%
- Cell numbers in BAL Macrophage (mice; 40 μg/mL): 8.3 ± 0.38 ×10^4/mL
- Cell numbers in BAL Neutrophil (mice; 40 μg/mL): 8.2 ± 0.58 ×10^4/mL
- % inhibition Macrophage in BAL (mice; 200 μg/mL): 83%
- % inhibition Neutrophil in BAL (mice; 200 μg/mL): 77%
- Cell numbers in BAL Macrophage (mice; 200 μg/mL): 5.9 ± 0.31 ×10^4/mL
- Cell numbers in BAL Neutrophil (mice; 200 μg/mL): 5.6 ± 0.39 ×10^4/mL
- pIC50 [3]: 8.70
- % inhibition of neutrophil numbers in BAL (Balb/c mice; 0.05 mg/mL, pre-dose time 2 hr): 40%
- Neutrophil numbers in BAL (Balb/c mice; 0.05 mg/mL, pre-dose time 2 hr, mean +/− SEM): 9.6 ± 2.0 ×10^5/mL
- % inhibition of neutrophil numbers in BAL (Balb/c mice; 0.2 mg/mL, pre-dose time 2 hr): 59%
- Neutrophil numbers in BAL (Balb/c mice; 0.2 mg/mL, pre-dose time 2 hr, mean +/− SEM): 6.6 ± 1.4 ×10^5/mL
- % inhibition of neutrophil numbers in BAL (Balb/c mice; 0.2 mg/mL, pre-dose time 12 hr): 43%
- Neutrophil numbers in BAL (Balb/c mice; 0.2 mg/mL, pre-dose time 12 hr, mean +/− SEM): 9.1 ± 1.7 ×10^5/mL
- % inhibition of neutrophil numbers in BAL (Balb/c mice; 0.2 mg/mL, pre-dose time 18 h): 9%
- Neutrophil numbers in BAL (Balb/c mice; 0.2 mg/mL, pre-dose time 18 h, mean +/− SEM): 14.6 ± 2.5 ×10^5/mL
- % inhibition of neutrophil numbers in BAL (Balb/c mice; 1.0 mg/mL, pre-dose time 2 hr): 77%
- Neutrophil numbers in BAL (Balb/c mice; 1.0 mg/mL, pre-dose time 2 hr, mean +/− SEM): 3.7 ± 0.61 ×10^5/mL
- % inhibition of neutrophil numbers in BAL (Balb/c mice; test substance at 0.2 mg/mL, dosed 8 hr pre-LPS challenge): 57%
- Neutrophil numbers in BAL (Balb/c mice; test substance at 0.2 mg/mL, dosed 8 hr pre-LPS challenge, +/−SEM): 6.1 ± 1.2 ×10^5/mL
- pIC50 (GSK 3α): 4.88

SMILES: C#Cc1cc(Nc2nccc(Oc3ccc(NC(=O)Nc4cc(C(F)(F)C(F)(F)F)nn4-c4ccc(C)cc4)c4ccccc34)n2)cc(C(=O)NCCN2CCOCC2)c1 [Example 74, 3-Ethynyl-N-(2-morpholinoethyl)-5-((4-((4-(3-(3-(perfluoroethyl)-1-(p-tolyl)-1H-pyrazol-5-yl)ureido)naphthalen-1-yl)oxy)pyrimidin-2-yl)amino)benzamide]
- pIC50 [1]: 5.92
- pIC50 (GSK 3α): 4.92

SMILES: C#Cc1cc(Nc2nccc(Oc3ccc(NC(=O)Nc4cc(C(C)(C)C)nn4-c4ccc(N(C)C)cc4)c4ccccc34)n2)cc(C(=O)NCCN2CCOCC2)c1 [Example 80, 3-((4-((4-(3-(3-(tert-Butyl)-1-(4-(dimethylamino)phenyl)-1H-pyrazol-5-yl)ureido)naphthalen-1-yl)oxy)pyrimidin-2-yl)amino)-5-ethynyl-N-(2-morpholinoethyl)-benzamide]
- pIC50 [1]: 6.36
- Mean hepatic extraction ratio (Eh) ([4]; dog hepatocytes): 0.73
- Mean hepatic extraction ratio (Eh) ([4]; human hepatocytes): <0.61
- Mean hepatic extraction ratio (Eh) ([4]; rat hepatocytes): <0.44
- Mean hepatic extraction ratio (Eh) ([5]; dog hepatic microsomes): 0.91
- Mean hepatic extraction ratio (Eh) ([5]; rat hepatic microsomes): 0.77
- % β-catenin induction ([6]; 1 μg/mL test compound): 14%
- % β-catenin induction ([6]; 5 μg/mL test compound): 8%
- hepatic clearance ([7]; conclusion from Tables 9a and 9b (hepatic microsomes and hepatocytes)): high hepatic clearance
- Mean hepatic extraction ratio (Eh) ([7]; human hepatic microsomes, scaled from intrinsic clearance, mean of two experiments): 0.93
- pIC50 (GSK 3α): 4.90

SMILES: C#Cc1cc(Nc2nccc(Oc3ccc(NC(=O)Nc4cc(C(C)(C)C)nn4-c4ccc(OC)cc4)c4ccccc34)n2)cc(C(=O)NCCOC)c1 [Example 84, 3-((4-((4-(3-(3-(tert-Butyl)-1-(4-methoxyphenyl)-1H-pyrazol-5-yl)ureido)-naphthalen-1-yl)oxy)pyrimidin-2-yl)amino)-5-ethynyl-N-(2-methoxyethyl)benzamide]
- pIC50 [1]: 6.98
- % β-catenin induction ([6]; 1 μg/mL test compound): 3%
- % β-catenin induction ([6]; 5 μg/mL test compound): 3%
- % β-catenin induction ([6]; 10 μg/mL test compound): 5%
- pIC50 (GSK 3α): 4.86
